According to patent publication US20250084056A1, “SUBSTITUTED OXOISOINDOLINYL PIPERIDINE-2,6-DIONE COMPOUNDS” (BRISTOL-MYERS SQUIBB COMPANY, priority 2023, published 2025):

Assays:
Format in all cases: cell-based
Phospho-Rb (Ser807/811) = experiment: Phospho-Retinoblastoma (pRB) Cellular Assay; conditions: Homo sapiens, OVCAR-3, NIH OVCAR3 cells, 24 hours; for IC50: concentration giving 50% response; for Emax: maximum response, reference compound at 10 μM = 100%, read-out: pRB Ymax
Description: Phospho-Retinoblastoma (pRB) Cellular Assay
NIH OVCAR3 (HTB-161, American Type Culture Collection, Manassas VA) cells were grown up to passage 10 in culture media made up of RPMI (11835-030 Gibco, Grand Island NY), 20% HI FBS (16140-071, Gibco, Grand Island NY), and 0.01 mg/mL insulin from bovine pancreas (I6634-1G, Sigma Aldrich, St. Louis, MO).
The cells were seeded in a 384-well CulturPlate (6007688, Perkin Elmer, Waltham MA) at a density of 10,000 cells/well in 20 μL of the above culture media and incubated overnight at 37° C. and 5% CO2.
The next day, cells were treated using an Echo 650 (Beckman Coulter, Indianapolis IN) acoustic dispenser with 40 nL of compounds dissolved in DMSO at the appropriate serial dilutions (10 mM to […]). Cells were then incubated for 24 hours as above.
After 24 hours elapsed, media was removed from each well and shortly after 20 μL of the following mix was added: 12 μL deionized water, 4 μL lysis buffer, 4 μL of reconstituted antibody mix, and 1:100 phosphatase inhibitor. These components belong to the Phospho-Rb (Ser807/811) Cellular Kit (64RBS807PEY, Perkin Elmer, Waltham MA).
Plates were sealed and incubated away from light at room temperature for at least 4 hours before reading them on an EnVision plate reader (Perkin Elmer, Waltham MA) according to the kit manufacturer's protocol. The reference compound, N-(5-{[(5-tert-butyl-1,3-oxazol-2-yl)methyl]sulfanyl}-1,3-thiazol-2-yl)piperidine-4-carboxamide, at 10 μM was used to define 100% response. Assay results for each compound were reported as IC50, the concentration giving 50% response, and Ymax, the maximum response observed with the compound.

GSPT1 = GSPT1 (Homo sapiens, UniProt P15170+Q96SW2); experiment: GSPT1 Cellular Degradation Assay (DF15-GSPT1-ePL); design: expressed in transfected cells; conditions: DF15-GSPT1-ePL cells, 20 hours
Text: DF15-GSPT1-ePL was used for intracellular GSPT1 protein degradation detection in form of chemiluminescent signal, which was built on a human DF15 cell line (CVCL_Y429) with conditional co-expression of chimeric GSPT1 (target) and ePL/donor (enhanced ProLabel® by DiscoverX for enzyme fragment complementation with donor-acceptor pairing). The cells used the culture medium in two arrangements for assay and maintenance. During assay, it used Core-RPMI 1640 medium with 10% Fetal Bovine Serum (Heat Inactivated) and 1× Penicillin/Streptomycin; and during passage maintenance, used added ingredients: 0.1 mM NEAA, 1 mM sodium pyruvate, 25 mM Hepes, 0.1% Pluronic F-68, 1× Glutamin, 4 μg/mL Blasticidin (selection agent). Detection was performed on a 1536 well tissue culture plate (Corning #3727) with cells seeded in 3.5 μL core-RPMI 1640 at density of 0.25 million/mL after the pre-titrated test compounds in DMSO on ECHO plate were dispensed onto the assay plate by use of ECHO (liquid handing system via acoustic energy from Labcyte). Assay incubation lasted 20 hours in 37° C. incubator with 5% CO2; then followed by 30 minutes of plate-cooling at room temperature; then detection-reagent-mix was added in 3.5 μL/well with pre-defined proportion of enzyme acceptor, substrate, and lysis buffer. Plate signal reading for luminescence on an EnVision plate reader (PerkinElmer) was conducted after 60 minutes of former step at room temperature. Raw data was collected and processed with Dotmatics (data analyzer) for test compound's potency values. The reference compound, 3-[5-(3,6-dimethoxyisoquinolin-1-yl)-1-oxo-2,3-dihydro-1H-isoindol-2-yl]piperidine-2,6-dione, at […] was used to define 75% response. Assay results for each compound were reported as DC50, the concentration giving 50% response, and Dmax, the maximum response observed with the compound.

Cyclin E1 = Cyclin E1 (Homo sapiens, UniProt P24864+Q96SW2); experiment: Cyclin E1 Cellular Degradation Assay (MSD); design: endogenous in cells; host or cells: OVCAR3; conditions: for DC50 / Dmax: Cyclin E1 cellular degradation; for Dmax: maximum degradation; for Ratio of GSPT1 DC50/Cyclin E1 DC50: selectivity for degradation of Cyclin E1 over GSPT1
Description: Culturing cells: On Day 0, OVCAR3 cells were plated at 15,000 cells/well in 40 μL of culture medium (RPMI1640, 20% FBS, 0.01 insulin, 1% Anti/Anti) in a 384 well cell culture plate. Cell cultures were incubated for 24 hours at 37° C. and 5% CO2.
Coating MSD plates: On Day 1, rabbit anti-CCNE1 antibody (Abcam ab33911, 1 μg/mL in DPBS, […]) was dispensed to a Meso Scale Discovery plate (MSD L21XA). The MSD plate was spun briefly to ensure the solution coated the bottom of the well and incubated overnight at 4° C. On Day 2, the plate was washed 3 times with TBS +0.2% TWEEN, blocked for 1 hour with 3% MSD Blocker A (MSD R93AA-1, 30 μL/well), then washed again 3 times with TBS+0.2% TWEEN.
Treating and lysing cells: On Day 1, compounds of interest were dispensed into the cell cultures by acoustic dispensing technology. The cell cultures were then spun at 400 g for 4 minutes to disperse the compounds and incubated at 37° C. and 5% CO2 for 24 hours. After incubation, 40 μL of DPBS was added to the cell cultures to dilute the media. All liquid was gently discarded and immediately replaced with 30 μL of lysis buffer (MSD Tris Lysis buffer (MSD R60TX-2), Halt Protease inhibitor (ThermoFisher 78438), Phosphatase Inhibitor II (Sigma-Aldrich P5726), Phosphatase Inhibitor III (Sigma-Aldrich P0044), 0.02M PMSF (Sigma-Aldrich 7626), 0.1% SDS (VWR E719-100ML)). The plate was then sealed, shaken at 300 rpm at room temperature for 5 minutes, and freeze-thawed for optimum cell lysis.
Collecting data: After thawing, 25 μL of lysate was transferred to a coated MSD plate. The plate was then sealed and shaken at 300 rpm overnight in 4° C. On Day 3, the MSD plate was washed 3 times with TBS+0.2% TWEEN. Mouse anti-CCNE1 antibody (Abcam ab238081, 0.5 μg/mL in 1% MSD Blocker A, 10 μL/well) dispensed to the MSD plate, which was then sealed and shaken at room temperature for 3 hours. After the first antibody incubation, the plate was washed 3 times with TBS+0.2% TWEEN, then goat anti-mouse Sulfo-Tag antibody (MSD R32AC, 1 μg/mL in 1% MSD Blocker A, 10 μL/well) was dispensed to the MSD plate. The plate was sealed again and shaken at room temperature for 1 hour, then washed 3 times with TBS+0.2% TWEEN. After the final wash, 35 μL of 1× Read Buffer (MSD R92TC-1) was added to each well and the data was captured using the MSD plate reader. The reference compound, [2-(2,6-dioxopiperidin-3-yl)-4-methoxy-3-oxo-2,3-dihydro-1H-isoindol-5-yl]methyl N-[4-(3,4-difluorophenoxy)phenyl]carbamate, at […] was used to define […]. Assay results for each compound were reported as DC50, the concentration giving 50% response, and Dmax, the maximum response observed with the compound.

Chain of Cyclin E1 (P24864 whole entry): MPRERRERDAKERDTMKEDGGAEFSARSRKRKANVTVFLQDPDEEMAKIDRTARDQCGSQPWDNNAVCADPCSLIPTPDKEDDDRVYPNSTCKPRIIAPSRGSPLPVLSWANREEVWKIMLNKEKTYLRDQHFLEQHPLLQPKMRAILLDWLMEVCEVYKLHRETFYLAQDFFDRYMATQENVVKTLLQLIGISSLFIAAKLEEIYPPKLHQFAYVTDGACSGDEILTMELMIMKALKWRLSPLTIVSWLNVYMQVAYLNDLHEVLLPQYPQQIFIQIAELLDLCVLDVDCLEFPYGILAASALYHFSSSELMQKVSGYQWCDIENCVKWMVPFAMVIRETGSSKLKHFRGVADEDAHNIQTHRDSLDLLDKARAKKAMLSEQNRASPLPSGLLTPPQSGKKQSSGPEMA
Chain of Cyclin E1 (Q96SW2 whole entry): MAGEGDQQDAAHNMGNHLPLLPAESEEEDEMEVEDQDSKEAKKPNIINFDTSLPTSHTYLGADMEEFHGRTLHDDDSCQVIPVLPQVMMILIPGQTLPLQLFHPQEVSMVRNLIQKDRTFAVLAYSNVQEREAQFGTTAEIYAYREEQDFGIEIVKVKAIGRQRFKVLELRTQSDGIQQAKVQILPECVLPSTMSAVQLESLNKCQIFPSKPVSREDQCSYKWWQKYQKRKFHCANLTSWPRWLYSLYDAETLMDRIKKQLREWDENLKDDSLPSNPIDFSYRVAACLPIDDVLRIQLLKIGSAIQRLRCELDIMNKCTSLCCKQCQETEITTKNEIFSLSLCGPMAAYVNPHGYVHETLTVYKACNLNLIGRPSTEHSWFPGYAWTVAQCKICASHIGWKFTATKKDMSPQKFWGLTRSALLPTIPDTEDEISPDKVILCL
Chain of Cyclin E1 (Q16531 whole entry partner): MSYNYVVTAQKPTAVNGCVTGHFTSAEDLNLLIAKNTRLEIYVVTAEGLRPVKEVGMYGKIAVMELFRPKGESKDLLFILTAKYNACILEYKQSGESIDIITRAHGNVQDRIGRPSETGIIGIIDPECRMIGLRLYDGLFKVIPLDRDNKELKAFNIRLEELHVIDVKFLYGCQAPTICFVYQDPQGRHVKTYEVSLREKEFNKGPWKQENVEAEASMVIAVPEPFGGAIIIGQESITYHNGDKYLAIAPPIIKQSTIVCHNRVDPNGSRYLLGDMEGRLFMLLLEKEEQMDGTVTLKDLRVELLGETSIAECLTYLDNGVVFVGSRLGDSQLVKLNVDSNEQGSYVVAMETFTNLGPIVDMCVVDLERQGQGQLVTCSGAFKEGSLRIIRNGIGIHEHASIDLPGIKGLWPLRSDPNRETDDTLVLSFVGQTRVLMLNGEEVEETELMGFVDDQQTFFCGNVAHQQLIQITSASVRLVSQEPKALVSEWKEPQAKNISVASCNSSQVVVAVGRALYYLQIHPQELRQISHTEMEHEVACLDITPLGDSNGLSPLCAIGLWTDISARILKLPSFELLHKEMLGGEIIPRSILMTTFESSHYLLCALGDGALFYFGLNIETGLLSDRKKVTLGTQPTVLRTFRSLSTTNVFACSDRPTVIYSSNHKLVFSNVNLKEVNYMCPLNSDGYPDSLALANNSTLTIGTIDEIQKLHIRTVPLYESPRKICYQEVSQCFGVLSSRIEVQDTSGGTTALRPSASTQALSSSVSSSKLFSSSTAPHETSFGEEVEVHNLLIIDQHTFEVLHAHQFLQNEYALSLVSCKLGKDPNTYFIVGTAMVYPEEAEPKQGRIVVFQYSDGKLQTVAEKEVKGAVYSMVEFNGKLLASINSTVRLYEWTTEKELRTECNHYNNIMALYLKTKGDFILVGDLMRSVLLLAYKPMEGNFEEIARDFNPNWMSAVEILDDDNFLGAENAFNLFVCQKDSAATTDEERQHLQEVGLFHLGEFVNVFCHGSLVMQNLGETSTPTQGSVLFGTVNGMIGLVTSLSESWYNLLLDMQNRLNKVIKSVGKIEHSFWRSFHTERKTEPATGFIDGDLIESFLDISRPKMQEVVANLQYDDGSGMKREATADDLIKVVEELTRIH
Chain of GSPT1 (P15170 whole entry, the tested form may be a part): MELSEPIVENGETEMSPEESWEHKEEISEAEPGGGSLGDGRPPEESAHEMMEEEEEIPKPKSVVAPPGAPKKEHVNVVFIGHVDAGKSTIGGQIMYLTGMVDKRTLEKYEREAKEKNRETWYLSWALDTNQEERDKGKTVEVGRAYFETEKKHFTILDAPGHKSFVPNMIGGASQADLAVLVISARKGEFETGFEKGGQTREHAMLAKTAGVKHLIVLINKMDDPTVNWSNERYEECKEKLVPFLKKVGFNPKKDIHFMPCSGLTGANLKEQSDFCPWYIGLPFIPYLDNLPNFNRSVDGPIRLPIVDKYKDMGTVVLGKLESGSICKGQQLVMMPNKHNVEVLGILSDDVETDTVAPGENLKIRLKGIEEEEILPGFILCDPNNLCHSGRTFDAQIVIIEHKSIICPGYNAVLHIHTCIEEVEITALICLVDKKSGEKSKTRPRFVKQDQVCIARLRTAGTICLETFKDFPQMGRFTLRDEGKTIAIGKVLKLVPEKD
Chain of GSPT1 (Q96SW2 whole entry, the tested form may be a part): as the sequence (Q96SW2 whole entry) above
Chain of GSPT1 (Q16531 whole entry partner, the tested form may be a part): as the sequence (Q16531 whole entry partner) above

COc1c(COC(=O)Nc2ccc(Oc3ccc(F)c(F)c3)cc2)ccc2c1C(=O)N([C@@H]1CCC(=O)NC1=O)C2 (single isomer, unassigned) [Example 36]
IC50 (Phospho-Rb (Ser807/811)): 339 nM
Emax (Phospho-Rb (Ser807/811)): 98%
DC50 (GSPT1): > 14000 nM
Dmax (GSPT1): 28%
DC50 (Cyclin E1): 257 nM
Dmax (Cyclin E1): 108%
Ratio of GSPT1 DC50/Cyclin E1 DC50 (Cyclin E1): >54

CC(C)Oc1c(COC(=O)Nc2ccc(Oc3ccc(F)c(F)c3)cc2)ccc2c1C(=O)N([C@H]1CCC(=O)NC1=O)C2 (single isomer, unassigned) [Example 125]
IC50 (Phospho-Rb (Ser807/811)): 98 nM
Emax (Phospho-Rb (Ser807/811)): 138%
DC50 (GSPT1): > 14000 nM
Dmax (GSPT1): 7%
DC50 (Cyclin E1): 263 nM
Dmax (Cyclin E1): 107%
Ratio of GSPT1 DC50/Cyclin E1 DC50 (Cyclin E1): >53

COc1c(COC(=O)Nc2ccc(Oc3ccc(F)c(F)c3)cc2)ccc2c1C(=O)N(C1CCC(=O)NC1=O)C2 (centres unmarked) [Example 1, [2-(2,6-dioxopiperidin-3-yl)-4-methoxy-3-oxo-2,3-dihydro-1H-isoindol-5-yl]methyl N-[4-(3,4-difluorophenoxy)phenyl]carbamate]
IC50 (Phospho-Rb (Ser807/811)): 133 nM
Emax (Phospho-Rb (Ser807/811)): 104%
DC50 (GSPT1): > 14000 nM
Dmax (GSPT1): 27%
DC50 (Cyclin E1): 199 nM
Dmax (Cyclin E1): 110%
Ratio of GSPT1 DC50/Cyclin E1 DC50 (Cyclin E1): >70

COc1c(COC(=O)Nc2ccc(Oc3ccccc3)cc2)ccc2c1C(=O)N(C1CCC(=O)NC1=O)C2 (centres unmarked) [Example 2, [2-(2,6-dioxopiperidin-3-yl)-4-methoxy-3-oxo-2,3-dihydro-1H-isoindol-5-yl]methyl N-(4-phenoxyphenyl)carbamate]
IC50 (Phospho-Rb (Ser807/811)): 83 nM
Emax (Phospho-Rb (Ser807/811)): 123%
DC50 (GSPT1): > 14000 nM
Dmax (GSPT1): 32%
DC50 (Cyclin E1): 78 nM
Dmax (Cyclin E1): 108%
Ratio of GSPT1 DC50/Cyclin E1 DC50 (Cyclin E1): >180

COc1c(COC(=O)Nc2ccc(Oc3cccc(Cl)c3)cc2)ccc2c1C(=O)N(C1CCC(=O)NC1=O)C2 (centres unmarked) [Example 3, [2-(2,6-dioxopiperidin-3-yl)-4-methoxy-3-oxo-2,3-dihydro-1H-isoindol-5-yl]methyl N-[4-(3-chlorophenoxy)phenyl]carbamate]
IC50 (Phospho-Rb (Ser807/811)): 103 nM
Emax (Phospho-Rb (Ser807/811)): 120%
DC50 (GSPT1): > 14000 nM
Dmax (GSPT1): 34%
DC50 (Cyclin E1): 91 nM
Dmax (Cyclin E1): 112%
Ratio of GSPT1 DC50/Cyclin E1 DC50 (Cyclin E1): >153

COc1c(COC(=O)Nc2ccc(Oc3cccc(F)c3)cc2)ccc2c1C(=O)N(C1CCC(=O)NC1=O)C2 (centres unmarked) [Example 4, [2-(2,6-dioxopiperidin-3-yl)-4-methoxy-3-oxo-2,3-dihydro-1H-isoindol-5-yl]methyl N-[4-(3-fluorophenoxy)phenyl]carbamate]
IC50 (Phospho-Rb (Ser807/811)): 89 nM
Emax (Phospho-Rb (Ser807/811)): 109%
DC50 (GSPT1): > 14000 nM
Dmax (GSPT1): 35%
DC50 (Cyclin E1): 39 nM
Dmax (Cyclin E1): 108%
Ratio of GSPT1 DC50/Cyclin E1 DC50 (Cyclin E1): >355

COc1c(COC(=O)Nc2ccc(Oc3ccc(F)cc3F)cc2)ccc2c1C(=O)N(C1CCC(=O)NC1=O)C2 (centres unmarked) [Example 5, [2-(2,6-dioxopiperidin-3-yl)-4-methoxy-3-oxo-2,3-dihydro-1H-isoindol-5-yl]methyl N-[4-(2,4-difluorophenoxy)phenyl]carbamate]
IC50 (Phospho-Rb (Ser807/811)): 3 nM
Emax (Phospho-Rb (Ser807/811)): 131%
DC50 (GSPT1): > 14000 nM
Dmax (GSPT1): 33%
DC50 (Cyclin E1): 299 nM
Dmax (Cyclin E1): 118%
Ratio of GSPT1 DC50/Cyclin E1 DC50 (Cyclin E1): >47

O=C1CCC(N2Cc3ccc(COC(=O)Nc4ccc(Oc5ccc(F)cc5Cl)cc4)c(O[C@@H]4CCOC4)c3C2=O)C(=O)N1 (stereo partly drawn) [Example 155, [2-(2,6-dioxopiperidin-3-yl)-3-oxo-4-[(3R)-oxolan-3-yloxy]-2,3-dihydro-1H-isoindol-5-yl]methyl N-[4-(2-chloro-4-fluorophenoxy)phenyl]carbamate]
IC50 (Phospho-Rb (Ser807/811)): 188 nM
Emax (Phospho-Rb (Ser807/811)): 116%
DC50 (Cyclin E1): 176 nM
Dmax (Cyclin E1): 100%

O=C1CCC(N2Cc3ccc(COC(=O)Nc4ccc(Oc5cccc(F)c5F)cc4)c(O[C@@H]4CCOC4)c3C2=O)C(=O)N1 (stereo partly drawn) [Example 156, [2-(2,6-dioxopiperidin-3-yl)-3-oxo-4-[(3R)-oxolan-3-yloxy]-2,3-dihydro-1H-isoindol-5-yl]methyl N-[4-(2,3-difluorophenoxy)phenyl]carbamate]
IC50 (Phospho-Rb (Ser807/811)): 39 nM
Emax (Phospho-Rb (Ser807/811)): 116%
DC50 (Cyclin E1): 101 nM
Dmax (Cyclin E1): 103%

O=C1CCC(N2Cc3ccc(COC(=O)Nc4ccc(Oc5ccc(F)cc5F)cc4)c(O[C@@H]4CCOC4)c3C2=O)C(=O)N1 (stereo partly drawn) [Example 157, [2-(2,6-dioxopiperidin-3-yl)-3-oxo-4-[(3R)-oxolan-3-yloxy]-2,3-dihydro-1H-isoindol-5-yl]methyl N-[4-(2,4-difluorophenoxy)phenyl]carbamate]
IC50 (Phospho-Rb (Ser807/811)): 65 nM
Emax (Phospho-Rb (Ser807/811)): 119%
DC50 (Cyclin E1): 116 nM
Dmax (Cyclin E1): 99%

O=C1CCC(N2Cc3ccc(COC(=O)Nc4ccc(Oc5cccc(Cl)c5)cc4)c(O[C@@H]4CCOC4)c3C2=O)C(=O)N1 (stereo partly drawn) [Example 158, [2-(2,6-dioxopiperidin-3-yl)-3-oxo-4-[(3R)-oxolan-3-yloxy]-2,3-dihydro-1H-isoindol-5-yl]methyl N-[4-(3-chlorophenoxy)phenyl]carbamate]
IC50 (Phospho-Rb (Ser807/811)): 175 nM
Emax (Phospho-Rb (Ser807/811)): 109%
DC50 (Cyclin E1): 74 nM
Dmax (Cyclin E1): 104%
